Experimental data taken from US7169818B2, “Lysophosphatidic acid receptor agonists and antagonists” (University of Virginia Patent Foundation, priority 2000, dated 2007).
Entries after “also recorded” stand apart in the source; their conditions may differ. One block for each molecule: values may come before it.

Key:
[1] = test system: human platelets; settings: previously reported; cited from earlier work
[2] = molecular target: T1, mouse LPA1 (Mus musculus, UniProt P61793); parameters: expressed in transfected cells; host or cells: HEK293T (transient); for part of the results RH7777 membranes; settings: previously reported; cited from earlier work
T1 sequence (P61793 whole entry): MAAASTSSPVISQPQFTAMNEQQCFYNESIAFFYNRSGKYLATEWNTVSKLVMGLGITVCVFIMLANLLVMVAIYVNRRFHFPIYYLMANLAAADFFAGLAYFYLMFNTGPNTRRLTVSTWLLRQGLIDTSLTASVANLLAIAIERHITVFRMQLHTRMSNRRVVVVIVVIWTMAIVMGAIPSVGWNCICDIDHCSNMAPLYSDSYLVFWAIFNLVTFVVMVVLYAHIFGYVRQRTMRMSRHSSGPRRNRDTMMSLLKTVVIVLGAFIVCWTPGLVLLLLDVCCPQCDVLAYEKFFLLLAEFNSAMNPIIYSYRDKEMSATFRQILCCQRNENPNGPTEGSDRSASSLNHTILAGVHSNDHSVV

[3] = molecular target: T2, human LPA3 (Homo sapiens, UniProt Q9UBY5); parameters: expressed in transfected cells; host or cells: HEK293T (transient); settings: previously reported; cited from earlier work
T2 sequence (Q9UBY5 1-353): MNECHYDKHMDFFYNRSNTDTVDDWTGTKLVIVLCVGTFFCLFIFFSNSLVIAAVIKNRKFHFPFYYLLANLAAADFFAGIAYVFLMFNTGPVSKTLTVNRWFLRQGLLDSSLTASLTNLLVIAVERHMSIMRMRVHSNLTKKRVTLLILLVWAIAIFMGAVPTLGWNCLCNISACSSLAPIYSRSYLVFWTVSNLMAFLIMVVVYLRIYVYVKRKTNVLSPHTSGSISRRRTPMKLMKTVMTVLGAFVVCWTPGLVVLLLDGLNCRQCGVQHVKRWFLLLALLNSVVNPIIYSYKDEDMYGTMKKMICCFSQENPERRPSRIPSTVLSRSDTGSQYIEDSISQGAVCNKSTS

[4] = molecular target: T3, human LPA2 (Homo sapiens, UniProt Q9HBW0); parameters: expressed in transfected cells; host or cells: HEK293T (transient); settings: previously reported; cited from earlier work
T3 sequence (Q9HBW0 whole entry): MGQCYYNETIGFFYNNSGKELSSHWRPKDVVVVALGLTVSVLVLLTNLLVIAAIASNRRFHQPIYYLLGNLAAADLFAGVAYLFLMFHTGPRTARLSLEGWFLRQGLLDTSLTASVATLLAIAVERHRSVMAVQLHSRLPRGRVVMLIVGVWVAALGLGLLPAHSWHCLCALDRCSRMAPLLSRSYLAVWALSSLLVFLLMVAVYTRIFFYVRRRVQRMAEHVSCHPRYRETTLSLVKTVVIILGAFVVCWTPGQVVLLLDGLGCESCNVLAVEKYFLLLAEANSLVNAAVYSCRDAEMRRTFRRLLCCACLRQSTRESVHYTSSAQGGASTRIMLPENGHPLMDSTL

[5] = test system: Xenopus laevis ooctyes; settings: previously reported; cited from earlier work
[6] = test system: renal injury following ischemia-reperfusion; assay: renal ischemia-reperfusion model; assay type: in vivo, C57BL6 mice; settings: 1 mg/kg/2 hr
Method: C57BL6 mice (20 gm, 8 wks of age) were used for all studies. The surgical protocol of renal IR has been previously described (Okusa et al., 1999. Am J. Physiol. (Renal Physiol.) 277: F404–412; Okusa, et al., 2000 Am. J. Physiol. (Renal Physiol.) 279; F809–F818, and Okusa et al., 2001 Kidney Int. 59:2114–2125). For the injury protocol, bilateral flank incisions were made under anesthesia with a regimen that consists of ketamine (100 mg/kg, ip.), xylazine (10 mg/kg, ip.) and acepromazine (1 mg/kg, im.). Renal pedicles were exposed and cross-clamped for 27–32 min. Kidneys were examined for immediate reperfusion following clamp removal. Wounds were closed and mice were returned to cages. […] The mice were sacrificed and the kidneys harvested at 1, 4, 8, 24, 48 hrs, 5 and 7 days. […] Mice were sacrificed following 24 hrs of reperfusion and plasma was obtained for BUN and creatinine.

[7] = molecular target: T1, mouse LPA1; assay: GTP[γ35S] binding, LPA1-transfected HEK293T (or RH7777) cell membranes; assay type: biochemical; parameters: expressed in transfected cells; host or cells: HEK293T (transient); for part of the results RH7777 membranes
Method: (§1) The appropriate receptor plasmid DNA (encoding mouse LPA1, human LPA2 or human LPA3) was mixed with equal amounts of expression plasmids (pcDNA3) encoding a mutated (C351F) rat Gi2a, cow β1, and γ2 proteins and these DNAs were used to transfect monolayers of HEK293T cells (where ‘T’ indicates expression of the SV-40 virus large T antigen) using the calcium phosphate precipitate method. After about 60 hours, cells were harvested, membranes were prepared, aliquoted and stored at −70° C. until use.
(§2) The GTP[35 γS] assay was performed as described by us previously. Membranes containing 5 ug of protein were incubated in 0.1 ml GTP-binding buffer (in mM: HEPES 50, NaCl 100, MgCl2 10, pH7.5) containing […], […], 0.1 nM GTP[35 γS] (1200 Ci/mmol), and indicated lipid(s) for 30 minutes at 30° C. Samples were analyzed for membrane-bound radionuclide using a Brandel Cell Harvester (Gaithersburg, Md.).
(§3) The X-intercept of the linear transformation is equal to the inverse log of the KI.
(§4) Membranes prepared from these cells are used to measure GTPγ[^35S] binding as a function of test compound concentration. The resulting dose-response curves provide relative potency (EC50) and efficacy (Emax) for the test compounds.

[8] = molecular target: T4, human LPA1 (Homo sapiens, UniProt Q92633); assay: GTP[γ35S] binding, baculovirus-infected insect Sf9 cell membrane preparation; assay type: biochemical
T4 construct: expressed in transfected cells; host or cells: Sf9 insect cells, recombinant baculovirus
T4 sequence (Q92633 whole entry): as the sequence (P61793 whole entry) above, with A4I, S8I, Q22P, Y40H, V61I, D193E, H194N, V269I, N331S, N335T counted along it
Method: The same activity was determined with human LPA1 using a recombinant baculovirus-infected insect Sf9 cell membrane preparation.

[9] = molecular target: T1, mouse LPA1; assay: cAMP accumulation in RH7777 cells stably expressing LPA1; assay type: cell-based; parameters: expressed in transfected cells
Method: (§5) Assays for cAMP accumulation were conducted on populations of 5×10^5 cells stimulated with […] in the presence of the phosphodiesterase inhibitor isomethylbutylxanthine (IBMX) for 15 minutes at 30° C. cAMP was measured by automated radioimmunoassay.
Rat hepatoma RH7777 cell monolayers were transfected with the mLPAI plasmid DNA using the calcium phosphate precipitate method and clonal populations expressing the neomycin phosphotransferase gene were selected by addition of geneticin (G418) to the culture media. The RH7777 cells were grown in monolayers at 37° C. in a 5% CO02/95% air atmosphere in growth media consisting of: 90% MEM, 10% fetal bovine serum, 2 mM glutamine and 1 mM sodium pyruvate.
(§6) wls-b8L and the other phosphonates were also tested also for activity in three whole cell assays. […] Finally, the activity of wls-b8L in activating a chloride conductance in Xenopus laevis ooctyes was measured.

[10] = molecular target: T2, human LPA3; assay: GTP[γ35S] binding, LPA3-transfected HEK293T cell membranes; assay type: biochemical; parameters: expressed in transfected cells; host or cells: HEK293T (transient); settings: block of LPA-induced GTP[γ35S] binding
Method: as §1, §2, §3, §4

[11] = test system: LPA receptors; assay: whole cell assays of calcium mobilization or inhibition of cAMP accumulation, agonist activity; assay type: cell-based
Method: as §5
A FLIPR™ (Molecular Devices, Inc.) was used to measure intracellular calcium in A431 and HEK293T cells. A431 cells were seeded (˜50,000 cells/well) in 96-well clear bottom black microplates (Corning Costar Corp., Cambridge, Mass.) and left overnight in CO2 incubator at 37° C. HEK293T cells were treated likewise, but seeded onto poly D-lysine coated microplates (Becton Dickinson, Franklin Lakes, N.J.). A431 cells were dye-loaded with 4 μM Fluo-3 AM ester (Molecular Probes Inc., Eugene, Oreg.) in a loading buffer (1×HBSS buffer, pH 7.4, containing 20 mM HEPES, 0.1% BSA, and 2.5 mM probenecid) for 1 hour at 37° C. Cells were then washed four times with the loading buffer and exposed in the FLIPR™ to sets of compounds. HEK293T cells were loaded with 2 μM Fluo-4 AM ester (Molecular Probes Inc., Eugene, Oreg.) in the same loading buffer without probenecid for 30 minutes and washed four times before being exposed to compounds in the FLIPR™. In all cases, each concentration of each compound was tested in at least quintuplicate.

[12] = molecular target: T3, human LPA2; assay: GTP[γ35S] binding, LPA2-transfected HEK293T cell membranes; assay type: biochemical; parameters: expressed in transfected cells; host or cells: HEK293T (transient); settings: block of LPA-induced GTP[γ35S] binding
Method: as §1, §2, §4

[13] = molecular target: T2, human LPA3; assay: chloride conductance in Xenopus oocytes injected with human LPA3 mRNA; assay type: cell-based; parameters: expressed in transfected cells; host or cells: Xenopus laevis oocytes, mRNA injection; settings: 10 μM applied to the oocyte surface
Method: as §6

[14] = test system: human platelets; assay: platelet aggregation; assay type: cell-based; settings: concentrations up to 10 micromolar
[15] = molecular target: T3, human LPA2; assay: chloride conductance in Xenopus oocytes injected with human LPA2 mRNA; assay type: cell-based; parameters: expressed in transfected cells; host or cells: Xenopus laevis oocytes, mRNA injection; settings: 10 μM applied to the oocyte surface
Method: as §6

[16] = test system: Xenopus laevis ooctyes; assay: chloride conductance / depolarization in Xenopus oocytes, endogenous receptor; assay type: cell-based; settings: uninjected Xenopus oocytes
Method: as §6

Structure (SMILES): CCCCCCCC/C=C\CCCCCCCC(=O)NCCOP(=O)(O)O [NAEPA, N-oleoyl ethanolamide phosphoric acid]
platelet aggregation (literature) [1]: nearly indistinguishable from LPA
GTP[γ35S] binding at LPA1 containing membranes relative to LPA (literature) [2]: nearly indistinguishable from LPA
activity at recombinant LPA3 relative to LPA (literature) [3]: distinctly less active than LPA
GTP[γ35S] binding at LPA2 containing membranes relative to LPA (literature) [4]: nearly indistinguishable from LPA
oocyte depolarization (literature) [5]: distinctly less active than LPA

Structure (SMILES): CCCCCCCC/C=C\CCCCCCCC(=O)N[C@H](COP(=O)(O)O)Cc1ccc(OCc2ccccc2)cc1 [VPC12249]
tissue preservation, H and E sections [6]: marked degree of tissue preservation
antagonist activity at LPA1 ([7]; block of LPA-induced GTP[γ35S] binding): surmountable antagonist
antagonist activity at human LPA1 [8]: same activity
block of the inhibition of forskolin-induced increases in cAMP levels ([9]; RH7777 cells stably expressing LPA1): inhibited
antagonist activity at LPA3 [10]: surmountable antagonist
agonist activity in whole cell assays [11]: completely devoid of agonist activity
antagonist activity at LPA2 [12]: lack of antagonist activity

activation of chloride conductance, human LPA3 mRNA injected [13]: very modest response
inhibition of cAMP accumulation (agonist efficacy) ([9]; concentration of 1 μM): fully efficacious
activation of chloride conductance, human LPA2 mRNA injected [15]: very modest response
activation of chloride conductance, endogenous receptor [16]: does not evoke this response
Structure (SMILES): CCCCCCCC/C=C\CCCCCCCC(=O)NCCCP(=O)(O)O [wls-b8L, (9Z)-N-(3-phosphonopropyl)Octadec-9-enamide]
receptor-type selectivity of agonist activity (LPA1 vs LPA2, LPA3) ([7]; GTP[γ35S] binding): more potent and efficacious at LPA1 than at either LPA2 or LPA3; also recorded: distinctly more selective regarding its agonist activity at a single LPA receptor (LPA1)
aggregation of human platelets [14]: does not elicit aggregation
